Reference: ChEMBL document CHEMBL5614385, “A peptide-salinomycin conjugate with a bystander effect reduces the stemness characteristics of ovarian cancer cells and enhances drug sensitivity” (Eur J Med Chem, 2024)
Activity calls are given as the source filed them. The calls are words filed in the database; no cut-off is given here. Non-standard residues stand in square brackets, D forms with d. Residues, ends and D or L forms follow the SMILES beside them. Sar = CNCC(=O)O

Experiments:
SK-OV-3 = assay: Inhibition of AKT phosphorylation in human SK-OV-3 cells at 5 uM incubated for 24 hrs by Western blot analysis; type: cell-based
[1] = target: Vascular endothelial growth factor receptor 2 (Homo sapiens) (UniProt P35968); assay: Inhibition of VEGFR2 phosphorylation in human SK-OV-3 cells at 5 uM incubated for 24 hrs by Western blot analysis; type: cell-based
Sequence of Vascular endothelial growth factor receptor 2 (Homo sapiens) (P35968 whole entry): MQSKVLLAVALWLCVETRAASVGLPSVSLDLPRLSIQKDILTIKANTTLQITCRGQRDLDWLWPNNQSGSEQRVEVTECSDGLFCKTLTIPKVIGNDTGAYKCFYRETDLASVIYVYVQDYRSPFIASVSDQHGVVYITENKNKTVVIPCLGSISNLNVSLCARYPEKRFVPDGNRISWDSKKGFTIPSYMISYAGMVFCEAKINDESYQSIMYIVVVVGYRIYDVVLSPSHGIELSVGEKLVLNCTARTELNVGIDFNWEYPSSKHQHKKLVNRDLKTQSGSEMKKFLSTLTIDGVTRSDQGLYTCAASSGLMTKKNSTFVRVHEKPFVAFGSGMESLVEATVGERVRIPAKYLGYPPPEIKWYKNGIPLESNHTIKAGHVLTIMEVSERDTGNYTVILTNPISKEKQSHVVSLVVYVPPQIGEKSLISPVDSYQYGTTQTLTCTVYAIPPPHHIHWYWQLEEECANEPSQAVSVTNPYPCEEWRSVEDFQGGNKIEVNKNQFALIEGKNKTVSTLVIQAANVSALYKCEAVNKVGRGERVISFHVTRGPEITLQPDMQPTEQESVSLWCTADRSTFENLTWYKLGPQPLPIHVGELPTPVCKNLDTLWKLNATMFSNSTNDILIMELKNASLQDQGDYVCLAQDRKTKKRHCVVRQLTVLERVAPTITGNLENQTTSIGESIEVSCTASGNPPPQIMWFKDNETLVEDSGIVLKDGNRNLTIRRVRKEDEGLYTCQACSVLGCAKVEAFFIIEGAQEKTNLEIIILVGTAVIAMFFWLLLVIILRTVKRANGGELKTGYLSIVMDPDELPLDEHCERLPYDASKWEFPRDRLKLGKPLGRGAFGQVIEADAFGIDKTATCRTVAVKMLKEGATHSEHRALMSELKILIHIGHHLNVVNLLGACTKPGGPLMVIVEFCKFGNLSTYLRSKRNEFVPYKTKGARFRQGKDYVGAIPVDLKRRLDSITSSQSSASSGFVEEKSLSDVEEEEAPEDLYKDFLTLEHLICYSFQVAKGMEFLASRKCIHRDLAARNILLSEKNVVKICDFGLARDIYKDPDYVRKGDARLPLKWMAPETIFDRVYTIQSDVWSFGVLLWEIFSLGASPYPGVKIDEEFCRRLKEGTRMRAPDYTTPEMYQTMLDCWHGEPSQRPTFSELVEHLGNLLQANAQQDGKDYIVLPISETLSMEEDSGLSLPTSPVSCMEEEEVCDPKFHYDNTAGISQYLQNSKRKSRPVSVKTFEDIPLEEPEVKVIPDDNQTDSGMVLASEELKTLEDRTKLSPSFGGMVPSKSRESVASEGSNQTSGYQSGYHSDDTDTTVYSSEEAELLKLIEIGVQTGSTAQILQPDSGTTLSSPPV

## CC(=O)N[C@@H](CCCCN)C(=O)N1CCC[C@H]1C(=O)N[C@@H](CO)C(=O)N[C@@H](CO)C(=O)N1CCC[C@H]1C(=O)N1CCC[C@H]1C(=O)N[C@@H](CCC(=O)O)C(=O)N[C@@H](CCC(=O)O)C(=O)N(C)CC(=O)N(C)CC(=O)N(C)CC(=O)N(C)CC(=O)N(C)CC(=O)N(C)CC(=O)N(C)CC(=O)N(C)CC(=O)N(C)CC(=O)N(C)CC(=O)N[C@@H](C)C(N)=O (Ac-KPSSPPEE[Sar][Sar][Sar][Sar][Sar][Sar][Sar][Sar][Sar][Sar]A-NH2)
SK-OV-3
  inhibition: Active
[1]
  inhibition: Active
